Reference: publication PMC8959664, “Elucidating Therapeutic and Biological Potential of Berberis baluchistanica Ahrendt Bark, Leaf, and Root Extracts” (Frontiers in Microbiology, 2022)

Test system: T1, trypsin
T1 construct: gene PRSS1; commercial-type enzyme; bovine is only a guess (porcine equally possible)
Experiment: casein digestion, perchloric acid precipitation, absorbance […] nm
Assay type: biochemical
Conditions: casein 0.8% substrate, Tris-HCl pH 7.4, 37°C, 5 min preincubation

Protein inhibition denaturation IC50: 430 ± 100 µg/mL
SMILES: CC(=O)Oc1ccccc1C(=O)O [aspirin]
